Assays:
Tat with TAR RNA = Tat with TAR RNA (Human immunodeficiency virus type 1 group M subtype B, UniProt P04608); assay: Association of Tat with TAR RNA; parameters: species or system HIV-1; details: manuscript in preparation [26]
[1] = test system: Tat-mediated HIV-1 transcription; assay: microbe, parasite or virus in culture; type: cell-based; details: for IC50: Human immunodeficiency virus 1, 24 h, read-out: IC50 (inhibition of Tat-mediated HIV-1 transcription)
Protocol: (§1) bl-DTR (TZM-bl-derived dual Tat reporter) cells derived from TZM-bl cells by insertion of two doxycycline-inducible lentiviral vector-expressing flag-tagged tat and Renilla-luciferase (R-Luc) genes were used to determine simultaneously both activities of Tat-mediated HIV-1 transcription and general cellular transcription, as described previously. Determination of the inhibitory effect of the compounds on Tat-mediated transcription was performed as described previously. In brief, 1 × 10^4 of bl-DTR cells cultured in 96-well plates were treated with compounds at a final concentration of 3 μM (Figure 3C) or with 1:2 serially diluted compounds at concentrations ranging from 0 to 25 μM (Figure 4 and Table 3). Subsequently, doxycycline was treated at a final concentration of 50 ng/mL to induce Tat-mediated F-Luc and R-Luc. At 24 h after treatment, the activities of F-Luc and R-Luc were determined by using a Dual-Glo™ luciferase assay system (Promega, Madison, WI, USA) according to the manufacturer’s protocols. The data are presented as a percentage relative to the DMSO control (vehicle) in the presence of doxycycline, and the experiment was performed in triplicate.

TZM-bl cells = assay: Cell viability (resazurin-based PrestoBlue) in parallel with infectivity assay; details: 3 μM, with infection of HIV-1 NL4-3 at MOI of 1
[2] = as above; details: human, TZM-bl cells; for viability at 48 h, 3 µM: with infection of HIV-1 NL4-3 at MOI of 1; for CC50 at 48 h: serial dilution starting from 100 μM, read-out: CC50 (concentration that reduces cell viability by 50%)
Tat protein = assay: Cellular expression level of Tat protein; type: cell-based, HIV-1; details: manuscript in preparation [26]
Tat and cyclin T1 = Tat and cyclin T1 (Human immunodeficiency virus type 1 group M subtype B, UniProt P04608); assay: Interaction between Tat and cyclin T1; details: manuscript in preparation [26]
HIV-1NL4-3 [3] = assay: HIV-1 replication assay (p24 […]) in A3.01 T cell line; type: cell-based; details: A3.01 cells, HIV-1NL4-3 MOI 0.1, 1.5 μM, 72 h
Protocol: (§2) TZM-bl cells (also referred as JC53BL-13) expressing human CD4, CXCR4, and CCR5 in order to facilitate HIV-1 infection, which contain the firefly luciferase (F-Luc) gene under the control of HIV-1 long terminal repeat (LTR) promoter was used to determine inhibitory effect of the compounds on HIV-1 infection, as described previously with minor modifications. In brief, 1 × 10^4 cells were cultured in 96-well plates for 24 h and then treated with compounds at a final concentration of 3 μM (Figure 1A) or with 1:2 serially diluted compounds at concentrations ranging from 0 to 25 μM (dose-response assay; Figure 1B and Table 2). Without replacement of a culture medium, the cells were then infected with the HIV-1NL4-3 strain at a multiplicity of infection (MOI) of 1 to determine the exact inhibitory effect of compounds on a single round infection. After 48 h, the inhibitory effect of the compounds was determined using a Bright Glo luciferase assay kit (Promega). The infectivity data are presented as a percentage relative to the DMSO control (vehicle). The inhibitory effects of the compounds on viral replication were determined with some minor modifications, as described previously. In brief, 5 × 10^4 cells/ well of A3.01 cells were infected with HIV-1NL4-3 at an MOI of 0.1 with the spinoculation at 300 g for 2 h at 25 °C. PBMCs were pre-activated with phytohemagglutinin M (PHA-M) for 3 days. The pre-activated 4 × 10^5 of PBMCs were washed with fresh media to remove excess PHA-M and then infected with HIV-1NL4-3 or HIV-1AD8 as that of A3.01 infection. After infection, the infectious media were replaced with fresh media (supplemented with international 10 units (IU)/mL of IL-2 for PBMCs containing 1.5 μM of compounds. At 72 h after infection, the inhibitory effect of the compounds on viral replication was determined by measuring the amount of p24, an HIV capsid protein, using an HIV-1 p24 […]™ kit (PerkinElmer, Waltham, MA, USA). Cell viability was determined by using the resazurin-based PrestoBlue™ cell viability reagent (Thermo Fisher Scientific, Waltham, MA, USA) according to the manufacturer’s protocols.

HIV-1NL4-3 [4] = assay: HIV-1 infectivity assay in TZM-bl cells (F-Luc under HIV-1 LTR); type: cell-based; details: Human immunodeficiency virus 1, NL43, TZM-bl; for inhibition at 3 µM: 48 h, read-out: Inhibition of HIV-1 Infectivity (%), TZM-bl cells, 3 μM, HIV-1 NL4-3 at MOI of 1, 48 h; for IC50: read-out: IC50 (inhibition of HIV-1 infection)
Excerpt: TZM-bl cells (also referred as JC53BL-13) expressing human CD4, CXCR4, and CCR5 in order to facilitate HIV-1 infection, which contain the firefly luciferase (F-Luc) gene under the control of HIV-1 long terminal repeat (LTR) promoter was used to determine inhibitory effect of the compounds on HIV-1 infection, as described previously with minor modifications. […] Without replacement of a culture medium, the cells were then infected with the HIV-1NL4-3 strain at a multiplicity of infection (MOI) of 1 to determine the exact inhibitory effect of compounds on a single round infection. After 48 h, the inhibitory effect of the compounds was determined using a Bright Glo luciferase assay kit (Promega). The infectivity data are presented as a percentage relative to the DMSO control (vehicle). The inhibitory effects of the compounds on viral replication were determined with some minor modifications, as described previously. […] PBMCs were pre-activated with phytohemagglutinin M (PHA-M) for 3 days. The pre-activated 4 × 10^5 of PBMCs were washed with fresh media to remove excess PHA-M and then infected with HIV-1NL4-3 or HIV-1AD8 as that of A3.01 infection.

HIV-1Ad8 = assay: HIV-1 replication assay (p24 […]) in PBMCs, CCR5 tropic strain; type: cell-based; details: CCR5 tropic HIV-1Ad8 MOI 0.1, 1.5 μM, 72 h
Protocol: TZM-bl cells (also referred as JC53BL-13) expressing human CD4, CXCR4, and CCR5 in order to facilitate HIV-1 infection, which contain the firefly luciferase (F-Luc) gene under the control of HIV-1 long terminal repeat (LTR) promoter was used to determine inhibitory effect of the compounds on HIV-1 infection, as described previously with minor modifications. In brief, 1 × 10^4 cells were cultured in 96-well plates for 24 h and then treated with compounds at a final concentration of 3 μM (Figure 1A) or with 1:2 serially diluted compounds at concentrations ranging from 0 to 25 μM (dose-response assay; Figure 1B and Table 2). Without replacement of a culture medium, the cells were then infected with the HIV-1NL4-3 strain at a multiplicity of infection (MOI) of 1 to determine the exact inhibitory effect of compounds on a single round infection. After 48 h, the inhibitory effect of the compounds was determined using a Bright Glo luciferase assay kit (Promega). The infectivity data are presented as a percentage relative to the DMSO control (vehicle). The inhibitory effects of the compounds on viral replication were determined with some minor modifications, as described previously. In brief, 5 × 10^4 cells/ well of A3.01 cells were infected with HIV-1NL4-3 at an MOI of 0.1 with the spinoculation at 300 g for 2 h at 25 °C. PBMCs were pre-activated with phytohemagglutinin M (PHA-M) for 3 days. […]

HIV-1NL4-3 [5] = assay: HIV-1 replication assay (p24 […]) in PBMCs, CXCR4 tropic strain; type: cell-based; details: HIV-1NL4-3 MOI 0.1, 1.5 μM, 72 h
Protocol: as §2

Tat = assay: Nuclear localization of Tat; type: cell-based, HIV-1; details: manuscript in preparation [26]
[6] = target: HIV-1 reverse transcriptase (RTase) (Human immunodeficiency virus type 1 group M subtype B, UniProt P12497); details: A3.01 cells, 10 μM, HIV-1NL4-3, 16 h after infection
Excerpt: (forward) and 5′-[…] (reverse). […] (forward) and 5′-[…] (reverse).

[7] = test system: general cellular transcription; assay: R-Luc activity in bl-DTR cells (general cellular transcription); type: cell-based; details: high dosages (12.5 μM and 25 μM)
Protocol: as §1

Sequence of Tat and cyclin T1 (P04608 whole entry): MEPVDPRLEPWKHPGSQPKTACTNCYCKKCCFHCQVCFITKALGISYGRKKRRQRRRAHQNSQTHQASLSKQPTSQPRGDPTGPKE
Sequence of Tat with TAR RNA (P04608 whole entry): as above

Row | SMILES | Inhibition of association of Tat with TAR RNA (Tat with TAR RNA) | IC50 [1] | Concentration of complete inhibition of Tat-induced transcriptional activity ([1]; bl-DTR cells, concentration response) | Cell Viability (%) (TZM-bl cells) | viability at 48 h, 3 µM [2] | CC50 at 48 h [2] | Inhibition of cellular expression level of Tat protein (Tat protein) | Inhibition of interaction between Tat and cyclin T1 (Tat and cyclin T1) | Inhibitory effect on viral replication (p24) (HIV-1NL4-3 [3]) | inhibition at 3 µM (HIV-1NL4-3 [4]) | IC50 (HIV-1NL4-3 [4]) | Inhibitory effect on viral replication (p24) (HIV-1Ad8) | Inhibitory effect on viral replication (p24) (HIV-1NL4-3 [5]) | melting point | Inhibition of nuclear localization of Tat (Tat) | Inhibition of RTase activity (level of HIV-1 RT product) [6] | R-Luc activity [7]
1 | COC(=O)C1(C/C=C/Cl)Nc2cc(C)cc(C)c2C1=O (centres unmarked) [Compound 6f, Methyl (E)-2-(3-chloroallyl)-4,6-dimethyl-3-oxindole-2-carboxylate] | did not inhibit | 1200 ± 40 nM | approximately 6 μM | without cytotoxicity | 93 ± 5.39% | 51 ± 4.44 µM | did not inhibit | did not inhibit | near-complete abrogation | 91.9 ± 1.78% | 458 ± 22.7 nM | inhibited replication | near-complete abrogation | > 300 °C | did not inhibit | – | –
2 | O=C1Nc2ccc(Cl)cc2[C@@](C#CC2CC2)(C(F)(F)F)O1 [EFV, efavirenz, reference compound] | – | – | – | – | – | 34.2 ± 0.59 µM | – | – | – | – | < 50 nM | – | – | – | – | inhibited | –
3 | COC(=O)C1(CC=C(Cl)Cl)Nc2cc(C)cc(C)c2C1=O (centres unmarked) [Compound 6g, Methyl 2-(3,3-dichloroallyl)-4,6-dimethyl-3-oxindole-2-carboxylate] | did not inhibit | 2850 ± 630 nM | – | – | 87.9 ± 0.82% | 43.6 ± 10.5 µM | did not inhibit | did not inhibit | half inhibition | 85.4 ± 1.44% | 1280 ± 959 nM | inhibited replication | half inhibition | > 300 °C | did not inhibit | – | decrease in R-Luc activity

Reference: PMC9370035, “Identification of 3-Oxindole Derivatives as Small Molecule HIV-1 Inhibitors Targeting Tat-Mediated Viral Transcription” (Molecules, 2022)
